The values below come from patent US11254700B2, “GSK-3β inhibitors and use thereof in methods of treatment” (UNIVERSITY OF HAWAII, priority 2017, dated 2022).

Series [1] deals with T1, GSK-3β (Homo sapiens, UniProt P49841). Kind of series: Kinase selectivity profile, GSK-3β. The format is biochemical. On the procedure: (§1) Kinase inhibition was assessed with the ADP-Glo Kinase Assay. For screening, 5 ng/μL of kinase was assayed in a reaction containing 50 ng/μL substrate, 40 mM Tris, pH 7.5, 20 mM MgCl2, 0.1 mg/mL bovine serum albumin, 50 μM dithiothreitol (DTT), 25 μM ATP, varying concentrations of test samples or 5% DMSO as vehicle. The reaction mixture was incubated for 1 hour at room temperature followed by the addition of the ADP-Glo′ reagents according to the manufacturer's protocol. The kinase inhibitor staurosporine was used at 1 μM as a reference control. Each data point was collected in quadruplicate of two independent experiments.
(§2) To assess kinase selectivity, compound 30 was screened against a panel of 41 human protein kinases of relevance to Alzheimer's disease and other CNS disorders (Martin, et al. (2013) Aging Res. Rev. 12:289-309). […] The exceptional selectivity of compound 30 to GSK-3β can effectively minimize risk of off-target effects.
Target sequence in this assay (P49841 whole entry): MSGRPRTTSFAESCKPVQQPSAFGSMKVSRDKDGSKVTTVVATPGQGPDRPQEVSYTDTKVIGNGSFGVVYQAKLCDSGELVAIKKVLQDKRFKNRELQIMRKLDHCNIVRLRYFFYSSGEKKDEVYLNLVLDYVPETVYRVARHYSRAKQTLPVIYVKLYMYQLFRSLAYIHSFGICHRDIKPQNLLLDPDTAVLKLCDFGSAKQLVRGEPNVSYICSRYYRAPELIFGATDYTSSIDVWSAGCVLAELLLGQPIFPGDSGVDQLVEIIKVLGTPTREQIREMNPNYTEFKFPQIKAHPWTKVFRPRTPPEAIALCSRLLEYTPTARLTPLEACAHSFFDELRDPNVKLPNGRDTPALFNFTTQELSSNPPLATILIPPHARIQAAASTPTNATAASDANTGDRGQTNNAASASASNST

A short description of series [2]: PAMPA passive membrane permeability. Here is the method:
Samples were run in quadruplicate.
Oral administration is noninvasive and is preferred for chronical diseases such as Alzheimer's disease and other CNS disorders. […] In the PAMPA model, the amount of target compounds diffused from a donor compartment to an acceptor compartment through a tri-layer phospholipid pre-coated membrane are measured to assess oral-absorption potential of drug candidates. In the present study, 1, 4, 9, 17, 21 and 30 were evaluated with the PAMPA assay.
In general terms: In PAMPA a lipid-coated filter parts donor from acceptor wells.

The target in series [3] is T1, GSK-3β. Kind of series: Kinase luminescent assay (ADP-Glo), GSK-3β inhibition. The format is biochemical. On the procedure: Kinase Luminescent Assay.
Kinase inhibition was assessed with the ADP-Glo Kinase Assay. […] The reaction mixture was incubated for 1 hour at room temperature followed by the addition of the ADP-Glo′ reagents according to the manufacturer's protocol. The kinase inhibitor staurosporine was used at 1 μM as a reference control. Each data point was collected in quadruplicate of two independent experiments.
Target sequence in this assay (P49841 whole entry): as above
For orientation: In ADP-Glo the light output rises with the ADP produced.

The test system of the next series is SH-SY5Y cells. Briefly: Cytotoxicity in SH-SY5Y cells. The format is cell-based, human. As to conditions: 1000 μM. Here is the method: (§3) Human neuroblastoma SH-SY5Y cell line (Sigma-Aldrich, Saint Louis, Mo.) was cultured in DMEM/F12 (v/v 1:1) media supplemented with 2 mM glutamine, 10% heat-inactivated fetal bovine serum (FBS) and 1% antibiotics including penicillin and streptomycin. After reaching 70-80% confluence, cells were then subcultured on poly-L-lysine plates with 10 μM retinoic acid in a reduced serum media (1% FBS) to promote neuronal maturation and differentiation as described (Agholme, et al. (2010) J. Alzheimer's Dis. 20: 1069-1082). Cell cultures were incubated at 37° C. in a fully humidified atmosphere containing 5% CO2.
(§4) SH-SY5Y cells were seeded at a density of 3×10^5 cells/mL in a 96-well plate in DMEM/F12 media containing 10 μM retinoic acid and 1% FBS to suppress cell proliferation. Cells were incubated under regular culture conditions for attachment. After 24 hours of plating, the cells were pretreated with different concentrations of test samples or the 0.2% DMSO as a vehicle control for 1 hour and then co-incubated with 10 μM Aβ42 for 72 hours. After the experimental treatment, the cells were subject to a […]® 96 AQueous One Solution Cell Proliferation […] Assay according to the manufacturer's instruction. […] Each data point was collected in triplicate of two independent experiments.

A further series concerns the target GSK-3α (Homo sapiens, UniProt P49840). Kind of series: Kinase selectivity profile, GSK-3α. Type of series: biochemical. On the procedure: as §1, §2
Series [4] has as its system SH-SY5Y cells treated with Aβ42 oligomers. Kind of series: Anti-Aβ42 neurotoxicity assay. The format is cell-based, human. Here is the method:
as §3
The toxic oligomers of Aβ42 were prepared as described (Liang, et al. (2016) ACS Chem. Neurosci. 7:912-923). Briefly, lyophilized Aβ42 peptide was dissolved in hexafluoroisopropanol, dried under vacuum, and stored at −20° C. Immediately prior to use, the peptide residue was reconstituted in DMEM/F12 media to make a stock solution at 0.1 mM and incubated at 4° C. for 24 hours to form diffusible oligomers. Aβ42 oligomers at a final concentration of 10 μM were assayed for cell viability.
as §4

Series [5] has as its system GSK-3β-mediated tau phosphorylation (pS396) in SH-SY5Y lysate. Briefly: Whole-cell lysate GSK-3β assay with human Tau pS396 ELISA. Type of series: biochemical. Here is the method: Whole-Cell Lysate GSK-3β Assay.
The assay procedure was followed as described (Liang, et al. (2016) ACS Chem. Neurosci. 7:912-923). SH-SY5Y cells were washed with phosphate-buffered saline (PBS) and lysed with cell extraction buffer containing 10 mM Tris, pH 7.4, 100 mM NaCl, 1 mM EDTA, 1 mM EGTA, 1 mM NaF, 20 mM Na4P2O7, 2 mM Na3VO4, 1% Triton X-100, 10% glycerol, 0.1% sodium dodecyl sulfate (SDS), 0.5% sodium deoxycholate, 1 mM phenylmethanesulfonyl fluoride (PMSF) and a protease inhibitor cocktail. Lysate was diluted with kinase buffer (40 mM Tris, pH 7.5, 20 mM MgCl2, 50 μM DTT, 400 μM ATP) to afford a concentration of 5 μg/μL of total protein, and split into aliquots. Recombinant human GSK-3β was fortified into lysate aliquots to a final concentration of 0.25% (wt/wt) of total protein. A lysate aliquot fortified with heat-inactivated GSK-3β was used as a negative control. The fortified lysate aliquots were incubated with test sample or 5% DMSO vehicle at 37° C. for 2 hours followed by ELISA analysis.
The quantitative determination of phosphorylated human tau at GSK-3β specific pS396 site was conducted by taking 50 μL diluted cell lysate and using a specific antibody against human tau [pS396] in a sandwich ELISA according to the manufacturer's protocol. Tau phosphorylation was quantified by measuring the absorbance at 450 nm in a microtiter plate reader. The analysis was collected in quadruplicate of two independent experiments.
In general terms: An ELISA detects its analyte on a solid surface through an enzyme-linked reagent.

For series [6], the system named is panel of 41 human protein kinases. Kind of series: Kinase selectivity profile, other kinases of the panel. The format is biochemical. As to conditions: 5 μM. Here is the method: as §1, §2
Series [7] addresses T1, GSK-3β. Kind of series: GSK-3β kinetics (Lineweaver-Burk), ATP or substrate GS2 competition. The format is biochemical. To be noted: 30 at 0 to 5 μM. On the procedure: To study GSK-3β kinetics, a reaction solution contained 5 ng/μL kinase, 40 mM Tris, pH 7.5, 20 mM MgCl2, 0.1 mg/mL BSA, 50 μM DTT, and varying concentrations of ATP or substrate GS2 (residues 636-662 of human muscle glycogen synthase) versus test samples. The mixture was incubated for 5, 15, 30, and 60 minutes at room temperature followed by the addition of the ADP-Glo′ reagents according to the manufacturer's protocol. The Lineweaver-Burk representation is derived from the double reciprocal plotting of the enzyme kinetic data.
Under a constant concentration of the substrate GS2 (17 μM), ATP concentrations varied from 2 to 50 μM and 30 concentrations varied from 0 to 5 μM. […] In the second set of experiments under a constant concentration of ATP (10 μM), substrate GS2 concentrations varied from 8 to 66 μM and 30 concentrations varied from 0 to 5 μM. […] The enzyme inhibitory behaviors of 30 are similar to that of the parent compound 1 (Liang, et al. (2016) ACS Chem. Neurosci. 7:912-923) and therefore confirm that the new analogues are indeed substrate-competitive inhibitors of GSK-3β.
Target sequence in this assay (P49841 whole entry): as above

In series [8] the target is T1, GSK-3β. To be noted: background; cited from earlier work.
Target sequence in this assay (P49841 whole entry, species assumed): as the sequence (P49841 whole entry) above

Where “and” joins values, the source holds several entries; their conditions need not be identical. Identical values can stand only once. Entries after “also recorded” stand apart in the source; their conditions may differ. Like-named read-outs stand apart in the source and are kept apart here.

Chain of GSK-3α (P49840 whole entry): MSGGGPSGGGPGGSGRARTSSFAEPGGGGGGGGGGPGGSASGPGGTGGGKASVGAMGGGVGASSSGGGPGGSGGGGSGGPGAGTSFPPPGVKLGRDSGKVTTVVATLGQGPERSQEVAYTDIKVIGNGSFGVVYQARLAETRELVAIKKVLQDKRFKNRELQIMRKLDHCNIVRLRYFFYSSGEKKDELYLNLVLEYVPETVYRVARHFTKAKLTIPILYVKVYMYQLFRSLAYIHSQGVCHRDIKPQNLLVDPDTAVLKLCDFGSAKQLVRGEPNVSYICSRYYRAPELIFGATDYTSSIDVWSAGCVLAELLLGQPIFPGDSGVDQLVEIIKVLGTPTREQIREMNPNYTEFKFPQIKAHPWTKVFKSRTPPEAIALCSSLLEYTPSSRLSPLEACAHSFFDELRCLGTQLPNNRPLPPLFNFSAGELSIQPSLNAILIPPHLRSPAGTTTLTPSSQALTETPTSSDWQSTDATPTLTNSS

Turning to `COc1ccc(-c2cc(=O)c3c(OC)c([C@@H]4O[C@H](C(=O)N[C@@H](C)C(F)(F)F)[C@@H](O)[C@H](O)[C@H]4O)c(OC)cc3o2)cc1OC` [Compound 30, (2S,3S,4R,5R,6S)-6-(2-(3,4-Dimethoxyphenyl)-5,7-dimethoxy-4-oxo-4H-chromen-6-yl)-3,4,5-trihydroxy-N—((S)-1,1,1-trifluoropropan-2-yl)tetrahydro-2H-pyran-2-carboxamide], the “specificity for GSK-3β versus GSK-3α” value at GSK-3β [1] (5 μM) is reported as 12.3 fold. The inhibition (in general, how much of the control response was suppressed) at 5 µM at GSK-3β [1] (read-out: GSK-3β inhibition (decrease of kinase activity)) worked out at 92.3%; on GSK-3α it was 7.5%. Besides, the “R (percent recovery)” value in series [2] (20 μM, pH 7.4, 5 hours) is on record as 30%. Moreover, in series [2] (20 μM, pH 7.4, 5 hours, room temperature, mean ±SD), the Pe is on record as 2.23 ± 0.21 ×10^−6 cm/s. The Permeability classification result in series [2] (PAMPA) is given as “high (high (Pe > 1.5 × 10^−6 cm/s))”. Besides, the “LiPE (pIC50−CLogP)” value on GSK-3β [3] is on record as above 4. Also, the IC50 (in general, the concentration that gives 50% inhibition) on GSK-3β [3] (25 μM ATP, 1 hour, room temperature, mean of quadruplicate of two experiments, read-out: IC50 against GSK-3β) was < 20 µM and 0.59 µM. In addition, the “potency against GSK-3β relative to epimer 31” value on GSK-3β [3] (vs 31) is reported as “about 4 fold”. Moreover, at GSK-3β [3] (vs isoorientin 1), the “increase of potency against GSK-3β relative to 1” value is listed as 310 fold. Moreover, the cytotoxicity entry with SH-SY5Y cells is “no observable cytotoxicity”. Moreover, the “protection against Aβ42 neurotoxicity” value in series [4] (1.25 to 20 μM, 10 μM Aβ42, 72 hours) is on record as “neuroprotection in a dose-dependent manner; also recorded: alleviates Aβ42 induced neurotoxicity”. The “improvement in effectiveness compared to parent compound” value in series [4] (30 at 10 μM versus 1 at 200 μM) is listed as around 20 fold. For the same compound, in series [4] (Homo sapiens, SH-SY5Y, 1 hour pretreatment, 10 μM Aβ42, 72 hours, read-out: neuroprotective potency EC50), the EC50 (usually the concentration at which the effect is half-maximal) turned out to be 8.7 µM. Further, the “effective dose, morphological protection from Aβ42 intoxication” value in [4] (morphological observations) is 10 μM. For the same compound, in series [4] (vs parent compound 1), the “increase of neuroprotective potency relative to 1” value amounted to 5.4 fold. For the same compound, the “inhibition of tau hyperphosphorylation compared to TDZD-8” value in [5] (10 μM, TDZD-8 at the same concentration) is listed as “better inhibition against tau hyperphosphorylation”. Besides, in [5] (2, 10 and 50 μM, 2 hours, 37° C., lysate with 0.25% GSK-3β), the “GSK-3β-mediated tau hyperphosphorylation at pS396” value is listed as “effectively attenuated tau hyperphosphorylation in a dose-dependent manner; also recorded: attenuate GSK-3β-mediated tau phosphorylation”. Further, the “inhibition of 40 out of 41 kinases of the test panel” value in series [6] is reported as “only marginal or weak inhibition”. Moreover, the “competition with substrate GS2” value on GSK-3β [7] (ATP 10 μM, GS2 8 to 66 μM) is on record as “competed with the substrate GS2”. The “competition with ATP” value on GSK-3β [7] (GS2 17 μM, ATP 2 to 50 μM) was “no competition between ATP and 30”.

Turning to `O=C([O-])[O-].[Li+].[Li+]` [lithium carbonate], the IC50 on GSK-3β [8] was 2000 µM.
